Results as given in PubChem BioAssay AID256 (DTP/NCI, 2004).
Several values for one entry are separate records, joined by “and”; a condition that tells them apart may be missing. Equal values may be shown once. Inconclusive results and toxic doses are left out.

System: CD2F1 mice, L1210 leukemia ip, survival T/C
Assay: NCI In Vivo Anticancer Drug Screen. Data for tumor model L1210 Leukemia (intraperitoneal) in CD2F1 (CDF1) mice
Conditions: higher = longer survival
Method in brief: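 Ratio T/C, where T is the treated-group value and C the vehicle-dosed control value, from mice implanted with a transplantable tumor.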

[1] = endpoint: mean survival time, dose: 100.0 mg/kg/injection, schedule: Q01DX009 (ip), vehicle: saline with Tween-80
[2] = endpoint: mean survival time, dose: 200.0 mg/kg/injection, schedule: Q01DX009 (ip), vehicle: saline with Tween-80
[3] = endpoint: mean survival time, dose: 400.0 mg/kg/injection, schedule: Q01DX009 (ip), vehicle: saline with Tween-80
[4] = endpoint: mean survival time, dose: 100.0 mg/kg/injection, schedule: Q04DX003 (ip), vehicle: saline with Tween-80
[5] = endpoint: mean survival time, dose: 200.0 mg/kg/injection, schedule: Q04DX003 (ip), vehicle: saline with Tween-80
[6] = endpoint: mean survival time, dose: 400.0 mg/kg/injection, schedule: Q04DX003 (ip), vehicle: saline with Tween-80

Structure (SMILES): NNC(=O)c1cc2ccccc2cc1O
- T/C [1]: 97 % of control
- T/C [2]: 86 % of control
- T/C [3]: 94 % of control

Structure (SMILES): c1ccc(P(CCNCCP(c2ccccc2)c2ccccc2)c2ccccc2)cc1
- T/C (endpoint: median survival time, dose: 25.0 mg/kg/injection, schedule: Q01DX009 (ip), vehicle: saline with Tween-80): 101 % of control
- T/C (endpoint: median survival time, dose: 50.0 mg/kg/injection, schedule: Q01DX009 (ip), vehicle: saline with Tween-80): 103 % of control
- T/C (endpoint: median survival time, dose: 100.0 mg/kg/injection, schedule: Q01DX009 (ip), vehicle: saline with Tween-80): 103 % of control
- T/C (endpoint: median survival time, dose: 200.0 mg/kg/injection, schedule: Q01DX009 (ip), vehicle: saline with Tween-80): 101 % of control

Structure (SMILES): O=C(O)C1CCCCC1C(=O)O.[NH-]C1CCCCC1[NH-].[Pt+2] (centres undefined)
- T/C (endpoint: mean survival time, dose: 3.13 mg/kg/injection, schedule: Q04DX003 (ip), vehicle: other): 106 % of control
- T/C (endpoint: mean survival time, dose: 6.25 mg/kg/injection, schedule: Q04DX003 (ip), vehicle: other): 106 % of control
- T/C (endpoint: mean survival time, dose: 12.5 mg/kg/injection, schedule: Q04DX003 (ip), vehicle: other): 116 % of control
- T/C (endpoint: mean survival time, dose: 100.0 mg/kg/injection, schedule: Q04DX003 (ip), vehicle: other): 187 % of control
- T/C (endpoint: mean survival time, dose: 200.0 mg/kg/injection, schedule: Q04DX003 (ip), vehicle: other): 168 % of control

Structure (SMILES): CCCCCCCCCCCCCCCCOC(=O)c1cc([N+](=O)[O-])c(Sc2ncnc3nc[nH]c23)c([N+](=O)[O-])c1
- T/C (endpoint: mean survival time, dose: 6.25 mg/kg/injection, schedule: Q01DX005 (ip), vehicle: other): 105 % of control
- T/C (endpoint: mean survival time, dose: 12.5 mg/kg/injection, schedule: Q01DX005 (ip), vehicle: other): 110 % of control
- T/C (endpoint: mean survival time, dose: 25.0 mg/kg/injection, schedule: Q01DX005 (ip), vehicle: other): 107 % of control
- T/C (endpoint: mean survival time, dose: 50.0 mg/kg/injection, schedule: Q01DX005 (ip), vehicle: other): 117 % of control
- T/C (endpoint: mean survival time, dose: 100.0 mg/kg/injection, schedule: Q01DX005 (ip), vehicle: other): 102 % of control

Structure (SMILES): CC1(C)N=C(N)N=C(N)N1c1cccc(C(C#N)CCCc2ccccc2)c1 (centres undefined)
- T/C (endpoint: mean survival time, dose: 12.5 mg/kg/injection, schedule: Q01DX009 (ip), vehicle: Klucel (hydroxypropylcellulose) (HPC)): 104 % of control
- T/C (endpoint: mean survival time, dose: 25.0 mg/kg/injection, schedule: Q01DX009 (ip), vehicle: Klucel (hydroxypropylcellulose) (HPC)): 104 % of control
- T/C (endpoint: mean survival time, dose: 50.0 mg/kg/injection, schedule: Q01DX009 (ip), vehicle: Klucel (hydroxypropylcellulose) (HPC)): 88 % of control

Structure (SMILES): COc1ccccc1/C=C/c1ccnc2ccccc12
- T/C (endpoint: mean survival time, dose: 100.0 mg/kg/injection, schedule: Q01DX009 (ip), vehicle: saline): 98 % of control
- T/C (endpoint: mean survival time, dose: 200.0 mg/kg/injection, schedule: Q01DX009 (ip), vehicle: saline): 95 % of control
- T/C (endpoint: mean survival time, dose: 400.0 mg/kg/injection, schedule: Q01DX009 (ip), vehicle: saline): 96 % of control

Structure (SMILES): NC(CSCc1ccccc1)C(=O)OCc1ccccc1 (centres undefined)
- T/C [4]: 104 % of control
- T/C [5]: 102 % of control
- T/C [6]: 104 % of control

Structure (SMILES): O=C(O)CC(=O)O.[NH-]CCC1CCCC[N-]1.[Pt+2] (centres undefined)
- T/C (endpoint: mean survival time, dose: 3.13 mg/kg/injection, schedule: Q04DX003 (ip), vehicle: distilled water + Tween-80): 111 % of control
- T/C (endpoint: mean survival time, dose: 6.25 mg/kg/injection, schedule: Q04DX003 (ip), vehicle: distilled water + Tween-80): 108 % of control
- T/C (endpoint: mean survival time, dose: 12.5 mg/kg/injection, schedule: Q04DX003 (ip), vehicle: distilled water + Tween-80): 114 % of control
- T/C (endpoint: mean survival time, dose: 25.0 mg/kg/injection, schedule: Q04DX003 (ip), vehicle: distilled water + Tween-80): 114 % of control
- T/C (endpoint: mean survival time, dose: 25.0 mg/kg/injection, schedule: Q04DX003 (ip), vehicle: water): 108 % of control
- T/C (endpoint: mean survival time, dose: 50.0 mg/kg/injection, schedule: Q04DX003 (ip), vehicle: distilled water + Tween-80): 113 % of control
- T/C (endpoint: mean survival time, dose: 50.0 mg/kg/injection, schedule: Q04DX003 (ip), vehicle: water): 120 % of control

Structure (SMILES): N#C[Se-].c1ccc([Te+](c2ccccc2)c2ccccc2)cc1
- T/C (endpoint: median survival time, dose: 1.56 mg/kg/injection, schedule: Q01DX009 (ip), vehicle: Klucel (hydroxypropylcellulose) (HPC)): 109 % of control
- T/C (endpoint: median survival time, dose: 3.12 mg/kg/injection, schedule: Q01DX009 (ip), vehicle: Klucel (hydroxypropylcellulose) (HPC)): 104 % of control
- T/C (endpoint: median survival time, dose: 6.25 mg/kg/injection, schedule: Q01DX009 (ip), vehicle: Klucel (hydroxypropylcellulose) (HPC)): 105 % of control
- T/C (endpoint: median survival time, dose: 12.5 mg/kg/injection, schedule: Q01DX009 (ip), vehicle: Klucel (hydroxypropylcellulose) (HPC)): 103 % of control

Structure (SMILES): CC(=O)Oc1cc2c(=O)oc3cc(OC(C)=O)c(=O)oc3c2c(OC(C)=O)c1OC(C)=O
- T/C (endpoint: mean survival time, dose: 100.0 mg/kg/injection, schedule: Q01DX001 (ip), vehicle: saline): 98 % of control
- T/C (endpoint: mean survival time, dose: 200.0 mg/kg/injection, schedule: Q01DX001 (ip), vehicle: saline): 101 % of control
- T/C (endpoint: mean survival time, dose: 400.0 mg/kg/injection, schedule: Q01DX001 (ip), vehicle: saline): 110 % of control

Structure (SMILES): C=CC[As](=O)(O)c1ccccc1Cl
- T/C (endpoint: mean survival time, dose: 6.25 mg/kg/injection, schedule: Q04DX003 (ip), vehicle: saline with Tween-80): 98 % of control
- T/C (endpoint: mean survival time, dose: 12.5 mg/kg/injection, schedule: Q04DX003 (ip), vehicle: saline with Tween-80): 105 % of control
- T/C (endpoint: mean survival time, dose: 25.0 mg/kg/injection, schedule: Q04DX003 (ip), vehicle: saline with Tween-80): 104 % of control

Structure (SMILES): COCC1OC(OC(=O)c2ccccc2)C(OC(=O)c2ccccc2)C(OC(=O)c2ccccc2)C1OC (centres undefined)
- T/C (endpoint: mean survival time, dose: 50.0 mg/kg/injection, schedule: Q01DX009 (ip), vehicle: saline with Tween-80): 101 % of control
- T/C [2]: 93 % of control

Structure (SMILES): Cc1cn(C2CC(O)C(COC(N)=O)O2)c(=O)[nH]c1=O (centres undefined)
- T/C (endpoint: mean survival time, dose: 100.0 mg/kg/injection, schedule: Q01DX001 (ip), vehicle: Klucel (hydroxypropylcellulose) (HPC)): 116 % of control
- T/C (endpoint: mean survival time, dose: 200.0 mg/kg/injection, schedule: Q01DX001 (ip), vehicle: Klucel (hydroxypropylcellulose) (HPC)): 92 % of control
- T/C (endpoint: mean survival time, dose: 400.0 mg/kg/injection, schedule: Q01DX001 (ip), vehicle: Klucel (hydroxypropylcellulose) (HPC)): 104 % of control

Structure (SMILES): CC(=O)OCC1OC([S-])C(OC(C)=O)C(OC(C)=O)C1OC(C)=O.CC[PH+](CC)CC.CC[PH+](CC)CC.[Au].[Au] (centres undefined)
- T/C (endpoint: mean survival time, dose: 0.62 mg/kg/injection, schedule: Q01DX009 (ip), vehicle: Klucel (hydroxypropylcellulose) (HPC)): 100 % of control and 102 % of control
- T/C (endpoint: mean survival time, dose: 1.25 mg/kg/injection, schedule: Q01DX009 (ip), vehicle: Klucel (hydroxypropylcellulose) (HPC)): 100 % of control and 104 % of control
- T/C (endpoint: mean survival time, dose: 2.5 mg/kg/injection, schedule: Q01DX009 (ip), vehicle: Klucel (hydroxypropylcellulose) (HPC)): 96 % of control and 102 % of control
- T/C (endpoint: mean survival time, dose: 5.0 mg/kg/injection, schedule: Q01DX009 (ip), vehicle: Klucel (hydroxypropylcellulose) (HPC)): 97 % of control and 98 % of control
- T/C (endpoint: mean survival time, dose: 10.0 mg/kg/injection, schedule: Q01DX009 (ip), vehicle: Klucel (hydroxypropylcellulose) (HPC)): 94 % of control and 97 % of control

Structure (SMILES): CCC(CC)C(=O)OCCCCOC(=O)C(CC)CC
- T/C (endpoint: mean survival time, dose: 100.0 mg/kg/injection, schedule: Q04DX003 (ip), vehicle: saline): 93 % of control
- T/C (endpoint: mean survival time, dose: 200.0 mg/kg/injection, schedule: Q04DX003 (ip), vehicle: saline): 107 % of control
- T/C (endpoint: mean survival time, dose: 400.0 mg/kg/injection, schedule: Q04DX003 (ip), vehicle: saline): 107 % of control

Structure (SMILES): O=C(O)Cc1c(Cl)cccc1[N+](=O)[O-]
- T/C (endpoint: mean survival time, dose: 100.0 mg/kg/injection, schedule: Q01DX001 (ip), vehicle: other): 116 % of control
- T/C (endpoint: mean survival time, dose: 200.0 mg/kg/injection, schedule: Q01DX001 (ip), vehicle: other): 101 % of control
- T/C (endpoint: mean survival time, dose: 400.0 mg/kg/injection, schedule: Q01DX001 (ip), vehicle: other): 104 % of control

Structure (SMILES): Cc1cc2nc(-c3ccccc3)c(-c3ccccc3)nc2cc1C
- T/C [1]: 92 % of control
- T/C [4]: 94 % of control
- T/C [2]: 92 % of control
- T/C [5]: 91 % of control
- T/C [3]: 93 % of control
- T/C [6]: 95 % of control

Structure (SMILES): CC(=O)OC1CCC2(C)C3CCC4(C)C(OC(=O)c5ccccc5)CCC4C3C3C(=O)OC32C1 (centres undefined)
- T/C (endpoint: mean survival time, dose: 100.0 mg/kg/injection, schedule: Q01DX001 (ip), vehicle: saline with Tween-80): 91 % of control
- T/C (endpoint: mean survival time, dose: 200.0 mg/kg/injection, schedule: Q01DX001 (ip), vehicle: saline with Tween-80): 90 % of control and 96 % of control
- T/C (endpoint: mean survival time, dose: 400.0 mg/kg/injection, schedule: Q01DX001 (ip), vehicle: saline with Tween-80): 88 % of control

Structure (SMILES): O=C(CCl)C(c1ccc([N+](=O)[O-])cc1)c1ccc([N+](=O)[O-])cc1
- T/C [1]: 98 % of control
- T/C [4]: 100 % of control
- T/C [2]: 98 % of control
- T/C [5]: 103 % of control
- T/C [3]: 98 % of control
- T/C [6]: 108 % of control

Structure (SMILES): O=C1CN(CO)C(=O)N1CO
- T/C (endpoint: median survival time, dose: 25.0 mg/kg/injection, schedule: Q01DX009 (ip), vehicle: Klucel (hydroxypropylcellulose) (HPC)): 110 % of control
- T/C (endpoint: median survival time, dose: 50.0 mg/kg/injection, schedule: Q01DX009 (ip), vehicle: Klucel (hydroxypropylcellulose) (HPC)): 110 % of control
- T/C (endpoint: median survival time, dose: 100.0 mg/kg/injection, schedule: Q01DX009 (ip), vehicle: Klucel (hydroxypropylcellulose) (HPC)): 116 % of control
- T/C (endpoint: median survival time, dose: 200.0 mg/kg/injection, schedule: Q01DX009 (ip), vehicle: Klucel (hydroxypropylcellulose) (HPC)): 112 % of control
- T/C (endpoint: median survival time, dose: 400.0 mg/kg/injection, schedule: Q01DX009 (ip), vehicle: Klucel (hydroxypropylcellulose) (HPC)): 96 % of control
